Measurements from US20080045514A1 (Cytovia, Inc., priority 2006, published 2008).

Experiments:
Format in all cases: cell-based
[1] = system: multi-drug resistant (MDR) murine leukemia cell line P388/ADR; test: Inhibition of cell proliferation (GI50), P388/ADR; details: Mus musculus; P388/ADR multi-drug resistant cells
Experimental: (§1) Human breast cancer cell lines T-47D, human hepatocellular carcinoma cell line SNU398, human colon carcinoma cell line HCT116, human lung cancer cell line H1299, human leukemia cell line K562, human lymphoma cell line Raji, human B cell lymphoblastoid cell line Ramos, and human Burkitt's lymphoma cell line Namalwa were grown and harvested as in Example 100. An aliquot of […] of cells (4.4×10^4 cells/mL) was added to a well of a 96-well microtiter plate containing 5 μL of a 10% DMSO in RPMI-1640 media solution containing 10 nM to 100 μM of 3-(2-chlorophenyl)-6-(3,4-methylenedioxyphenyl)-7H-[1,2,4]triazolo[3,4-b][1,3,4]thiadiazine (1 nM to 10 μM final). An aliquot of 45 μL of cells was added to a well of a 96-well microtiter plate containing 5 μL of a 10% DMSO in RPMI-1640 media solution without compound as the control sample for maximal cell proliferation (LMax). The samples were mixed by agitation and then incubated at 37° C. for 48 h in a 5% CO2-95% humidity incubator. After incubation, the samples were removed from the incubator and 25 μL of CellTiter-Glo™ reagent (Promega) was added. The samples were mixed by agitation and incubated at room temperature for 10-15 min. Plates were then read using a luminescent plate reader (Model SPECTRAfluor Plus, Tecan) to give Ltest values.
(§2) The samples were mixed by agitation and then incubated at 37° C. for 0.5 h in a 5% CO2-95% humidity incubator. After incubation, the samples were removed from the incubator and 25 μL of CellTiter-Glo™ reagent (Promega) was added. The samples were mixed by agitation and incubated at […] 10-15 min at room temperature in a 5% CO2-95% humidity incubator. Fluorescence was read as above, (LStart) defining luminescence for initial cell number used as baseline in GI50 determinations.
(§3) Calculation: GI50 (dose for 50% inhibition of cell proliferation) is the concentration where [(Ltest−LStart)/(LMax−LStart)]=0.5.
(§4) Several compounds were tested in human sarcoma cell line MES-SA and multi-drug resistant (MDR) human sarcoma cell line MES-SA/ADR, murine leukemia cell line P388 and multi-drug resistant (MDR) murine leukemia cell line P388/ADR, and the data are summarized in Table III.

[2] = system: human lymphoma cell line Raji; test: Inhibition of cell proliferation (GI50), Raji; details: Homo sapiens; Raji cells, 48 h, CellTiter-Glo
Method in brief: (§5)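 Proliferation was measured by luminescent ATP assay after cells were incubated with compound for 48 h at 37 °C. GI50 was derived as the concentration giving half the growth seen in drug-free wells, after subtracting the signal recorded 0.5 h post-seeding.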

[3] = system: human Burkitt's lymphoma cell line Namalwa; test: Caspase cascade activation (EC50), Namalwa; details: Homo sapiens, Burkitts lymphoma cell; Namalwa cells; caspase cascade activation; read-out: caspase potency (EC50) Namalwa
Method in brief: (§6)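 48 h compound exposure (0.016–10 μM final) at 37 °C, 5% CO2; then DEVD-R110 substrate in lysolecithin/DTT/PIPES pH 7.2 buffer, 3 h RT. Fluorescence ex485/em530; net RFU = T=3 h minus control T=0; ratio to control; sigmoidal fit → EC50 (nM).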

[4] = system: human B cell lymphoblastoid cell line Ramos; test: Caspase cascade activation (EC50), Ramos; details: Homo sapiens, RAMOS cells, read-out: caspase potency (EC50) RAMOS
Method in brief: as §6

[5] = system: human breast cancer cell line T-47D; test: Caspase cascade activation (EC50), T-47D; details: Homo sapiens; T47D cells; caspase cascade activation; read-out: caspase potency (EC50) T47D
Method in brief: as §6

[6] = system: human sarcoma cell line MES-SA; test: Inhibition of cell proliferation (GI50), MES-SA; details: MES-SA cells
Experimental: as §1, §2, §3, §4

[7] = system: human leukemia cell line K562; test: Inhibition of cell proliferation (GI50), K562; details: Homo sapiens; K562 cells, 48 h, CellTiter-Glo
Method in brief: as §5

[8] = system: murine leukemia cell line P388; test: Inhibition of cell proliferation (GI50), P388; details: Mus musculus; P388 cells
Experimental: as §1, §2, §3, §4

[9] = system: human colon carcinoma cell line HCT116; test: Inhibition of cell proliferation (GI50), HCT116; details: Homo sapiens; HCT 116 cells, 48 h, CellTiter-Glo
Method in brief: as §5

[10] = system: multi-drug resistant (MDR) human sarcoma cell line MES-SA/ADR; test: Inhibition of cell proliferation (GI50), MES-SA/ADR; details: MES-SA/ADR multi-drug resistant cells
Experimental: as §1, §2, §3, §4

[11] = system: human lymphoma cell line Raji; test: Caspase cascade activation (EC50), Raji; details: Homo sapiens, RAJI cells, read-out: caspase potency (EC50) RAJI
Method in brief: as §6

[12] = system: human hepatocellular carcinoma cell line SNU398; test: Caspase cascade activation (EC50), SNU398; details: Homo sapiens, SNU-398; SNU398 cells; caspase cascade activation; read-out: caspase potency (EC50) SNU398
Method in brief: as §6

[13] = system: human colon carcinoma cell line HCT116; test: Caspase cascade activation (EC50), HCT116; details: Homo sapiens, HCT-116; HCT116 cells; caspase cascade activation; read-out: caspase potency (EC50) HCT116
Method in brief: as §6

[14] = system: human Burkitt's lymphoma cell line Namalwa; test: Inhibition of cell proliferation (GI50), Namalwa; details: Homo sapiens, Burkitts lymphoma cell; Namalwa cells, 48 h, CellTiter-Glo
Method in brief: as §5

[15] = system: human B cell lymphoblastoid cell line Ramos; test: Inhibition of cell proliferation (GI50), Ramos; details: Homo sapiens; Ramos cells, 48 h, CellTiter-Glo
Method in brief: as §5

[16] = system: human cancer cell line H1299; test: Caspase cascade activation (EC50), H1299; details: NCI-H1299, H1299 cells, read-out: caspase potency (EC50) H1299
Method in brief: as §6

[17] = system: human lung cancer cell line H1299; test: Inhibition of cell proliferation (GI50), H1299; details: NCI-H1299, H1299 cells, 48 h, CellTiter-Glo
Experimental: as §1, §2, §3

[18] = system: human hepatocellular carcinoma cell line SNU398; test: Inhibition of cell proliferation (GI50), SNU398; details: Homo sapiens; SNU 398 cells, 48 h, CellTiter-Glo
Method in brief: as §5

[19] = system: human breast cancer cell line T-47D; test: Inhibition of cell proliferation (GI50), T47D; details: Homo sapiens; T47D cells, 48 h, CellTiter-Glo
Method in brief: as §5

| SMILES | GI50 [1] | GI50 [2] | EC50 [3] | EC50 [4] | EC50 [5] | GI50 [6] | GI50 [7] | GI50 [8] | GI50 [9] | GI50 [10] | EC50 [11] | EC50 [12] | EC50 [13] | GI50 [14] | GI50 [15] | EC50 [16] | GI50 [17] | GI50 [18] | GI50 [19] |
| --- | --- | --- | --- | --- | --- | --- | --- | --- | --- | --- | --- | --- | --- | --- | --- | --- | --- | --- | --- |
| COc1cc(OC)cc(-c2nnc3n2N=C(c2ccc4c(c2)OCO4)CS3)c1 [Example 2, 3-(3,5-Dimethoxyphenyl)-6-(3,4-methylenedioxyphenyl)-7H-[1,2,4]triazolo[3,4-b][1,3,4]thiadiazine] | 29 nM | 53 nM | 117 nM | 89 nM | 508 nM | 59 nM | 27 nM | 20 nM | 190 nM | 154 nM | 112 nM | 141 nM | 139 nM | 20 nM | 11 nM | – | – | – | – |
| COc1cc(-c2nnc3n2N=C(c2ccc4c(c2)OCO4)CS3)cc(Cl)c1OC [Example 4, 3-(3-Chloro-4,5-dimethoxyphenyl)-6-(3,4-methylenedioxyphenyl)-7H-[1,2,4]triazolo[3,4-b][1,3,4]thiadiazine] | 16 nM | 26 nM | 36 nM | 31 nM | 168 nM | 30 nM | 24 nM | 12 nM | 150 nM | 28 nM | 32 nM | 47 nM | 61 nM | 31 nM | 12 nM | – | – | – | – |
| COc1ccc(C2=Nn3c(nnc3-c3cccc(OC)c3)SC2)cc1 [Example X, 3-(3-methoxyphenyl)-6-(4-methoxyphenyl)-7H-[1,2,4]triazolo[3,4-b][1,3,4]thiadiazine] | 77 nM | 62 nM | 66 nM | 67 nM | 523 nM | 418 nM | 32 nM | 57 nM | 157 nM | 196 nM | 83 nM | 67 nM | 119 nM | 119 nM | 14 nM | 680 nM | – | 55 nM | 400 nM |
| COc1ccccc1-c1nnc2n1N=C(c1ccc3c(c1)OCO3)CS2 [V, 3-(2-Methoxyphenyl)-6-(3,4-methylenedioxyphenyl)-7H-[1,2,4]triazolo[3,4-b][1,3,4]thiadiazine] | 43 nM | – | 61 nM | 75 nM | 62 nM | 83 nM | – | 31 nM | – | 123 nM | 81 nM | 68 nM | 111 nM | – | – | – | – | – | – |

Results, then the compound that gave them:

| GI50 [1] | GI50 [2] | EC50 [3] | EC50 [4] | EC50 [5] | GI50 [6] | GI50 [7] | GI50 [8] | GI50 [9] | GI50 [10] | EC50 [11] | EC50 [12] | EC50 [13] | GI50 [14] | GI50 [15] | EC50 [16] | GI50 [17] | GI50 [18] | GI50 [19] | SMILES |
| --- | --- | --- | --- | --- | --- | --- | --- | --- | --- | --- | --- | --- | --- | --- | --- | --- | --- | --- | --- |
| 25 nM | – | 36 nM | 32 nM | 517 nM | 44 nM | – | 23 nM | – | 63 nM | 49 nM | 36 nM | 154 nM | – | – | – | – | – | – | COc1ccc(C2=Nn3c(nnc3-c3cc(OC)c(OC)c(OC)c3)SC2)cc1 [Example A2, 3-(3,4,5-Trimethoxyphenyl)-6-(4-methoxyphenyl)-7H-[1,2,4]triazolo[3,4-b][1,3,4]thiadiazine] |
| 10 nM | 41 nM | 31 nM | 13 nM | 61 nM | 17 nM | 18 nM | 7 nM | 25 nM | 25 nM | 19 nM | 28 nM | 40 nM | 13 nM | 16 nM | 68 nM | 166 nM | 12 nM | 22 nM | COc1cc(-c2nnc3n2N=C(c2ccc4c(c2)OCO4)CS3)cc(OC)c1OC [Example M1, 3-(3,4,5-Trimethoxyphenyl)-6-(3,4-methylenedioxyphenyl)-7H-[1,2,4]triazolo[3,4-b][1,3,4]thiadiazine] |
